Read-outs that look alike come from different tables or passages of the source.
Assays:
[1] = test system: oedema induced in the rats' paw by intradermic injection of carrageenin; assay: carrageenin-induced paw oedema (method of Winter), antiinflammatory activity; assay type: in vivo; details: Rattus norvegicus, po
[2] = test system: aggregating action of arachidonic acid; assay: ex vivo study of aggregating action of arachidonic acid after oral administration; assay type: in vivo; details: guinea pigs, oral dose equal to antiinflammatory ED50
[3] = test system: protective activity in the hot plate test; assay: hot plate test, central analgesic activity; assay type: in vivo; details: up to 200 mg/kg^-1 orally, mice
[4] = test system: Hyperthermia caused by brewer's yeast in rats; assay: brewer's yeast hyperthermia (method of C. Winter), antipyretic activity; assay type: in vivo; details: for ED50: Rattus norvegicus, po
Text: The antipyretic activity has been studied according to the method of C. Winter, Toxicol. and Appl. Pharmacol., 5, 247 (1963), in rats, by determining the ability of the substance to reduce the increase of body temperature caused by the subcutaneous administration of brewer's yeast.

in vivo = details: rat, po
[5] = gastrolesive action after single doses; details: rat, in vivo
[6] = test system: writhings caused by 2-phenylparabenzoquinone in mice; assay: writhing test (method of Siegmund), 2-phenylparabenzoquinone, analgesic activity; assay type: in vivo, Swiss mice; details: for Contorsions % (change vs controls) / No. Contorsions: orally at ED50: biphenylylacetic acid 12, Ia 32 mg/kg; for ED50: Mus musculus, po
Text: The analgesic activity has been studied according to the method described by Siegmund (E. Siegmund et al, Proc. Soc. Exptl. Biol. Med., 95, 729 (1957)), according to which the algogenic stimulus consists of the intraperitoneal injection of 2-phenylparabenzoquinone and the algesia manifests itself in repeated abdominal contractions with an extension of the rear limbs and contorsions of the body ("writhing test").

acute toxicity (DL50) = details: mouse, in vivo
Text: Finally, the following values of DL50 have been determined in mice for compound Ia: […]

[7] = test system: Salmonella thyphimurium TA 1535; TA 1538; TA 100; TA 98; assay: Ames test, mutagenic action; assay type: cell-based; details: with and without metabolic activation, up to 5000 μg per plate
[8] = test system: platelet aggregation induced by arachidonic acid; assay: platelet aggregation induced by arachidonic acid in vitro (method of Born); assay type: cell-based, guinea pigs; details: guinea pig platelet-enriched plasma
Protocol: The activity of compound Ia on the metabolism of arachidonic acid has been studied in virto according to the method described by B. Fjalland, J. Pharm. Pharmacol., 26, 448 (1974). In these tests the compound being examined is capable of inhibiting the synthesis of prostaglandin and thromboxane caused by arachidonic acid (AA) incubated with lung tissue of guinea pigs (IC50 =0.05 mM). The activity on the platelet aggregation induced by arachidonic acid has been determined in vitro on plasma enriched with platelets of guinea pigs according to the method described by G. V. R. Born, Nature 194, 927 (1962).

SMILES: COc1ccccc1OCC(O)COC(=O)Cc1ccc(-c2ccccc2)cc1 (stereo not drawn) [Compound Ia, 1-Biphenylylacetoxy-3-(2-methoxyphenoxy)-propan-2-ol]
- ED50 ([1]; orally, read-out: effective dose ED50, antiedemigenic (antiinflammatory) activity): 22.5 mg/kg
- duration of decrease in aggregating action of arachidonic acid [2]: remains up to the fifth hour
- start of decrease in aggregating action of arachidonic acid after administration [2]: starts three hours after the administration
- protective activity in the hot plate test (central analgesic activity) [3]: has not shown any protective activity
- Temperature after administration of the substance, t ([4]; 6 mg/kg os, 1 h): 38.01±0.07 °C
- Temperature change Δt after administration of the substance ([4]; 6 mg/kg os, 1 h): -0.63 °C
- Temperature after administration of the substance, t ([4]; 6 mg/kg os, 2 h): 37.71±0.09 °C
- Temperature change Δt after administration of the substance ([4]; 6 mg/kg os, 2 h): -0.75 °C
- P/S, ratio of protected animals with respect to total screened animals ([4]; 6 mg/kg os, 3 h): 1/10
- Temperature after administration of the substance, t ([4]; 6 mg/kg os, 3 h): 37.70 °C
- Temperature change Δt after administration of the substance ([4]; 6 mg/kg os, 3 h): -0.69 °C
- Temperature after administration of the substance, t ([4]; 6 mg/kg os, 4 h): 37.85±0.14 °C
- Temperature change Δt after administration of the substance ([4]; 6 mg/kg os, 4 h): -0.45 °C
- Temperature after administration of the substance, t ([4]; 6 mg/kg os, 5 h): 38.07±0.15 °C
- Temperature change Δt after administration of the substance ([4]; 6 mg/kg os, 5 h): -0.19 °C
- Temperature after administration of the substance, t ([4]; 6 mg/kg os, 6 h): 38.10 °C
- Temperature change Δt after administration of the substance ([4]; 6 mg/kg os, 6 h): -0.14 °C
- Temperature after administration of the substance, t ([4]; 12 mg/kg os, 1 h): 37.81±0.06 °C
- Temperature change Δt after administration of the substance ([4]; 12 mg/kg os, 1 h): -0.83 °C
- Temperature after administration of the substance, t ([4]; 12 mg/kg os, 2 h): 37.40±0.05 °C
- Temperature change Δt after administration of the substance ([4]; 12 mg/kg os, 2 h): -1.06 °C
- P/S, ratio of protected animals with respect to total screened animals ([4]; 12 mg/kg os, 3 h): 4/10
- Temperature after administration of the substance, t ([4]; 12 mg/kg os, 3 h): 37.32±0.08 °C
- Temperature change Δt after administration of the substance ([4]; 12 mg/kg os, 3 h): -1.07 °C
- Temperature after administration of the substance, t ([4]; 12 mg/kg os, 4 h): 37.41±0.07 °C
- Temperature change Δt after administration of the substance ([4]; 12 mg/kg os, 4 h): -0.89 °C
- Temperature after administration of the substance, t ([4]; 12 mg/kg os, 5 h): 37.66±0.09 °C
- Temperature change Δt after administration of the substance ([4]; 12 mg/kg os, 5 h): -0.50 °C
- Temperature after administration of the substance, t ([4]; 12 mg/kg os, 6 h): 37.88±0.07 °C
- Temperature change Δt after administration of the substance ([4]; 12 mg/kg os, 6 h): -0.36 °C
- Temperature after administration of the substance, t ([4]; 24 mg/kg os, 1 h): 37.66±0.05 °C
- Temperature change Δt after administration of the substance ([4]; 24 mg/kg os, 1 h): -0.98 °C
- Temperature after administration of the substance, t ([4]; 24 mg/kg os, 2 h): 37.31±0.05 °C
- Temperature change Δt after administration of the substance ([4]; 24 mg/kg os, 2 h): -1.15 °C
- P/S, ratio of protected animals with respect to total screened animals ([4]; 24 mg/kg os, 3 h): 8/10
- Temperature after administration of the substance, t ([4]; 24 mg/kg os, 3 h): 37.13±0.06 °C
- Temperature change Δt after administration of the substance ([4]; 24 mg/kg os, 3 h): -1.26 °C
- Temperature after administration of the substance, t ([4]; 24 mg/kg os, 4 h): 37.16±0.06 °C
- Temperature change Δt after administration of the substance ([4]; 24 mg/kg os, 4 h): -1.14 °C
- Temperature after administration of the substance, t ([4]; 24 mg/kg os, 5 h): 37.34±0.05 °C
- Temperature change Δt after administration of the substance ([4]; 24 mg/kg os, 5 h): -0.92 °C
- Temperature after administration of the substance, t ([4]; 24 mg/kg os, 6 h): 37.55±0.06 °C
- Temperature change Δt after administration of the substance ([4]; 24 mg/kg os, 6 h): -0.69 °C
- ED50 ([4]; rats, orally, read-out: ED50, antipyretic activity): 14 mg/kg
- duration of antipyretic activity ([4]; rats, orally): continues after the sixth hour
- onset of antipyretic activity after the treatment ([4]; rats, orally): within one hour after the treatment
- TD50 (in vivo): 61.7 mg/kg
- selectivity ratio [5]: 2 to 4
- onset of analgesic activity after administration ([6]; 32 mg/kg orally, mice): 15 min
- Contorsions % (change vs controls) ([6]; 5 minutes): -28%
- No. Contorsions ([6]; 5 minutes): 33.1 ± 4.1
- Contorsions % (change vs controls) ([6]; 15 minutes): -33%
- No. Contorsions ([6]; 15 minutes): 35.1 ± 3.4
- Contorsions % (change vs controls) ([6]; 30 minutes): -54%
- No. Contorsions ([6]; 30 minutes): 22.7 ± 2.4
- Contorsions % (change vs controls) ([6]; 1 hour): -47%
- No. Contorsions ([6]; 1 hour): 26.8 ± 3.3
- Contorsions % (change vs controls) ([6]; 2 hours): -46%
- No. Contorsions ([6]; 2 hours): 25.4 ± 3.8
- Contorsions % (change vs controls) ([6]; 3 hours): -44%
- No. Contorsions ([6]; 3 hours): 27.6 ± 3.4
- Contorsions % (change vs controls) ([6]; 4 hours): -31%
- No. Contorsions ([6]; 4 hours): 33.5 ± 3.6
- Contorsions % (change vs controls) ([6]; 5 hours): -1%
- No. Contorsions ([6]; 5 hours): 45.0 ± 3.2
- ED50 ([6]; mice, orally, read-out: ED50, analgesic activity (writhing test)): 32 mg/kg
- LD50 (acute toxicity (DL50); ip, read-out: DL50 ip): 260 mg/kg
- LD50 (acute toxicity (DL50); po, read-out: DL50 orally): 3330 mg/kg
- mutagenic action (Ames test) [7]: has not shown any mutagenic action
- IC50 ([8]; Cavia porcellus, read-out: IC50, anti aggregating activity): 123 µM
- anti aggregating activity, concentration dependence [8]: proportional to the concentration used

SMILES: O=C(Cc1ccc(-c2ccccc2)cc1)Nc1ccccn1 [Diphenpyramide, N-2-pyridinyl-(1,1'-biphenyl)-4-acetamide]
- ED50 ([1]; os, read-out: Antiinflammatory activity (oedema caused by carrageenin in rats) ED50): 19.9 mg/kg
- ED50 ([4]; rats, os, read-out: Antipyretic activity (temperature increase by brewer's yeast, in rats) ED50): 22.5 mg/kg
- TD50 (in vivo): 76 mg/kg
- ED50 ([6]; read-out: Analgesic activity (against pain caused by 2-phenyl-p-benzo-quinone in mice) ED50): 97 mg/kg

From patent publication US4570013A, “Biphenylylalkanoic acid derivatives, methods of preparation and pharmaceutical compositions therefrom” (Dr. L. Zambeletti S.p.A., priority 1983, dated 1986)
